These results are taken from US7317037B2, “Progesterone receptor modulators comprising pyrrole-oxindole derivatives and uses thereof” (Wyeth, priority 2004, dated 2008).

The subject of data set [1] is rat uterine decidualization. The experiment in a line: Rat decidualization assay. Format: in vivo. Particulars: po, read-out: ED50 in the rat decidual assay. As to the method: B. Progestational and Antiprogestational Activity in Mature Ovariectomized Rats (Rat Decidualization Assay)
This assay is used to evaluate the effect of progestins and antiprogestins on rat uterine decidualization and compare the relative potencies of various test compounds.
Test compounds are dissolved in 100% ethanol and mixed with corn oil (vehicle). Stock solutions of the test compounds in oil (Mazola™) are then prepared by heating (˜80° C.) the mixture to evaporate ethanol. Test compounds are subsequently diluted with 100% corn oil or 10% ethanol in corn oil prior to the treatment of animals. No difference in decidual response is found when these two vehicles are compared. […]
Approximately 24 hr after the third injection, decidualization is induced in one of the uterine horns of anesthetized rats by scratching the antimesometrial luminal epithelium with a blunt 21 G needle. […] Approximately 24 hr following the final treatment, rats are sacrificed by […] and bodyweight measured. […]
In agonist mode, the increase in weight of the decidualized uterine horn is calculated by D-horn/C-horn and logarithmic transformation is used to maximize normality and homogeneity of variance. […] EC50 is calculated from the transformed value. […] IC50 is calculated from the retransformed value. […]

Data set [2] is described as follows: Cynomolgus monkey intravenous pharmacokinetics. Particulars: in vivo, cynomolgus monkeys, 0.25 mg/kg i.v. The text has this: Therefore from the preceding data it is clear that the R6=fluorine group present in 5-(7-fluoro-3,3-dimethyl-2-oxo-2,3-dihydro-1H-indol-5-yl)-1-methyl-1H-pyrrole-2-carbonitrile dramatically improves the pharmacokinetic performance of the molecule. This improved pharmacokinetic performance translates in the cynomolgus menses induction assay to a dramatic improvement in activity.

The subject of another data set is menses induction. The data set is described as follows: Cynomolgus monkey menses induction assay. Type of data set: in vivo. Particulars: 5 mg/kg po. As to the method:
C. Cynomolgus Monkey […] Induction 1. Experimental Design The effects of administered compound(s) in either a single dose or a dose-response paradigm versus an appropriate control (vehicle alone) are determined. When a compound is tested at a single dose, a group of four animals will be used for the dose. In the dose response study, each experiment will involve up to 5 groups of animals (a control group and 4 groups of animals treated with varying doses of the compound). Experimental groups will contain 3-4 animals/group, since this sample size is commonly used in the literature and has been found appropriate based on our own experience. The animals are treated with test compounds once or twice daily for 4 days in the mid-luteal phase of the menstrual cycle to assess the efficacy of the compounds on the reproductive parameters menstruation. 2. Procedures Initially, animals are characterized in terms of their reproductive cyclicity by observing time of menstruation. Only those animals with two consecutive normal cycles are used to evaluate test compounds. […] will be determined by daily gross examination for vaginal bleeding. In each experiment, animals will be treated once or twice daily IV, IM, SC or PO with the test compound. Appropriate vehicles will be determined for each route of administration and will be specified through protocol amendments. […]

As usually defined, the ED50 is the midpoint of the dose-response relation. As for `Cn1c(C#N)ccc1-c1ccc2c(c1)C(C)(C)C(=O)N2` [5-(3,3-Dimethyl-2-oxo-2,3-dihydro-1H-indol-5-yl)-1-methyl-1H-pyrrole-2-carbonitrile, reference compound], the ED50 in data set [1] is 0.2 mg/kg. For the same molecule, the AUC(0-inf) in data set [2] (read-out: exposure (AUC0-∞)) came out at 343 ng·h/mL. Further, the half-life in data set [2] (read-out: mean half life (t1/2) (converted)) was 2.1 h. Further, the “induction of early onset of menses” value in the data set with menses induction is “not active”.
